Measured values as given in paper PMC7278776, “Multidrug Resistance Modulation Activity of Silybin Derivatives and Their Anti-Inflammatory Potential” (Antioxidants, 2020).

Tests used:
ABCB9 = ABCB9 mRNA expression (real-time PCR); assay type: cell-based, human; conditions: A2780/DOX, 10 µM, 48 h, without doxorubicin
ABCA2 = ABCA2 mRNA expression (real-time PCR); assay type: cell-based, human; conditions: 10 µM, 48 h, without doxorubicin; for ABCA2 Expression Difference / ABCA2 Treated vs. Untreated: A2780/DOX
ABCF1 = ABCF1 mRNA expression (real-time PCR); assay type: cell-based, human; conditions: A2780/DOX
Method: (§1) The A2780/DOX cell line was seeded into 5 cm Petri dishes with DMEM medium at 1 × 10^5 cell/mL. After 24 h, the dishes were washed with PBS and new DMEM medium supplemented with doxorubicin (at concentration equal to IC25) and samples (10 µM) were added. After 48 h of treatment, the cells were washed with PBS and harvested using the standard trypsin-EDTA procedure. The harvested cells were centrifuged (3200× g; 10 min, 4 °C). The supernatant was discarded, and the pellets were washed with 1.5 mL of cooled PBS (5400× g; 10 min, 4 °C). The washing step was repeated with 1 mL of PBS and the cells were centrifuged again (10,000× g; 3 min, 4 °C). Afterwards, the pellets were resuspended in 1 mL of Trizol (Invitrogen, Carlsbad, CA, USA) and transferred into pre-cooled RNase-free microfuge tubes. The samples were stored at −80 °C.
(§2) A Quant-iT RiboGreen RNA Assay Kit (Invitrogen) was used to determine the RNA concentration using the Infinite M200 plate reader (Tecan, Männedor, Switzerland). The cDNA was prepared from 0.5 µg of total RNA using a RevertAid First Strand Synthesis cDNA Kit (MBI Fermentas, Vilnius, Lithuania). The amplification of the ubiquitin C gene fragment was used to determine the quality of cDNA.
(§3) The experiment was performed using the ViiA7 Real-Time polymerase chain reaction (PCR) System (Life Technologies, Camarillo, CA, USA) with a 384-well block. Before quantitative real-time PCR, the master mix was prepared by mixing 2 µL of 8 × diluted cDNA, 1.75 µL of RNase free water, 1 µL of 5 × HotFIREPol Probe quantitative PCR Mix Plus (Solis Biodyne, Tartu, Estonia) and 0.25 µL of specific 20 × TaqMan Gene Expression Assay (Life Technologies), giving 5 µL of final reaction volume. Cycling parameters were: initial hold at 50 °C for 2 min and denaturation at 95 °C for 10 min, followed by 45 cycles consisting of denaturation at 95 °C for 15 s and annealing/extension at 60 °C for 1 min. After each extension phase, the fluorescence values were acquired. Duplicate samples were used for measurement and samples with a standard deviation of duplicates > 1.0 cycle threshold (Ct) were re-analyzed. The real time PCR procedure was maintained according to MIQE (Minimum information for publication of quantitative real-time PCR experiments) guidelines. The software REST 2009 (Qiagen, Hilden, Germany) served to compare relative transcript levels of genes in the cell line.

ABCF2 [1] = assay: ABCF2 mRNA expression (real-time PCR); assay type: cell-based, human; conditions: A2780/DOX, 10 µM, 48 h, without doxorubicin
ABCA3 = ABCA3 mRNA expression (real-time PCR); assay type: cell-based, human; conditions: A2780/DOX
Method: as §1, §2, §3

[2] = Viability of A2780/DOX cells (resazurin); conditions: human
Method: To determine the NO production, the medium was mixed with Griess reagent (0.04 g/mL, prepared in deionized water) in a 1:1 ratio. After 15 min, absorbance was recorded at 540 nm. To determine cell viability, the resazurin solution (0.03 mg/mL in PBS) was added to the cells. After 2 h of incubation, fluorescence was recorded (560/590 nm, ex./em.).
A multidrug resistant ovarian sub-line resistant to doxorubicin (A2780/DOX, Sigma-Aldrich) was cultivated in DMEM medium with 10% FBS and 1 × antibiotic antimycotic solution. Every other passage, doxorubicin at the final concentration of 0.1 µM was added to the culture medium to maintain the resistance of the cell line. To perform experiments, the cells were seeded at 1 × 10^5 cell/mL into the wells of a 96-well plate and incubated for 24 h. Afterwards, the cells were washed with PBS and fresh DMEM medium with tested compounds at 10, 20 and 30 µM were added to each well, except for the control wells. Subsequently, the cells were exposed to increasing concentrations of doxorubicin (0.6–20 µM) for 72 h. After incubation, the resazurin assay was performed as described above. The IC50 of doxorubicin was calculated for both the control and the samples and the fold change was counted up. […] The fold change lower than 1 means an antagonistic effect. (1) FOLD CHANGE=IC50 value of DOX cells treated with chemotherapeutic /IC50 value of DOX cells treated with chemotherapeutic and compound

ABCB2 = ABCB2 mRNA expression (real-time PCR); assay type: cell-based, human; conditions: A2780/DOX, 10 µM, 48 h, without doxorubicin
ABCF2 [3] = assay: ABCF2 mRNA expression (real-time PCR); assay type: cell-based, human; conditions: A2780/DOX, 10 µM combined with doxorubicin at IC25, 48 h
Method: as §1, §2, §3

[4] = parameters: method as in PMID 15465345, PMID 19138735; conditions: cited from earlier work
[5] = parameters: method as in PMID 15465345, PMID 19138735; conditions: cited from earlier work; remark: listed apart in the source
ABCB7 = ABCB7 mRNA expression (real-time PCR); assay type: cell-based, human; conditions: A2780/DOX, 10 µM, 48 h, without doxorubicin
Method: as §1, with “After 24 h, the dishes were washed with PBS and new DMEM medium supplemented with doxorubicin (at concentration equal to IC25) and samples (10 µM) were added.” left out
(§4) A Quant-iT RiboGreen RNA Assay Kit (Invitrogen) was used to determine the RNA concentration using the Infinite M200 plate reader (Tecan, Männedor, Switzerland). […]
(§5) The experiment was performed using the ViiA7 Real-Time polymerase chain reaction (PCR) System (Life Technologies, Camarillo, CA, USA) with a 384-well block. Before quantitative real-time PCR, the master mix was prepared by mixing 2 µL of 8 × diluted cDNA, 1.75 µL of RNase free water, 1 µL of 5 × HotFIREPol Probe quantitative PCR Mix Plus (Solis Biodyne, Tartu, Estonia) and 0.25 µL of specific 20 × TaqMan Gene Expression Assay (Life Technologies), giving 5 µL of final reaction volume. […] After each extension phase, the fluorescence values were acquired. […]

ABCA7 = ABCA7 mRNA expression (real-time PCR); assay type: cell-based, human; conditions: A2780/DOX, 10 µM, 48 h, without doxorubicin
Method: as §1, with “After 24 h, the dishes were washed with PBS and new DMEM medium supplemented with doxorubicin (at concentration equal to IC25) and samples (10 µM) were added.” left out
as §4, §5

ABCB8 = ABCB8 mRNA expression (real-time PCR); assay type: cell-based, human; conditions: A2780/DOX, 10 µM, 48 h, without doxorubicin
Method: as §1, with “After 24 h, the dishes were washed with PBS and new DMEM medium supplemented with doxorubicin (at concentration equal to IC25) and samples (10 µM) were added.” left out
as §2
as §5, with “acquired. Duplicate samples were used for measurement and samples with a standard deviation of duplicates > 1.0 cycle threshold (Ct) were re-analyzed. The real time PCR procedure was maintained according to MIQE (Minimum information for publication of quantitative real-time PCR experiments) guidelines.” for “acquired.”

ABCD4 = ABCD4 mRNA expression (real-time PCR); assay type: cell-based, human; conditions: A2780/DOX, 10 µM, 48 h, without doxorubicin
Method: as §1, §2
as §5, with “acquired. Duplicate samples were used for measurement and samples with a standard deviation of duplicates > 1.0 cycle threshold (Ct) were re-analyzed. The real time PCR procedure was maintained according to MIQE (Minimum information for publication of quantitative real-time PCR experiments) guidelines.” for “acquired.”

ABC superfamily genes = assay: Expression profile of ABC superfamily genes (real-time PCR); assay type: cell-based, human; conditions: 10 µM, 48 h, without doxorubicin
Method: as §1, with “After 24 h, the dishes were washed with PBS and new DMEM medium supplemented with doxorubicin (at concentration equal to IC25) and samples (10 µM) were added.” left out
as §4, §5

ABCB3 = ABCB3 mRNA expression (real-time PCR); assay type: cell-based, human; conditions: A2780/DOX, 10 µM, 48 h, without doxorubicin
Method: as §1, with “After 24 h, the dishes were washed with PBS and new DMEM medium supplemented with doxorubicin (at concentration equal to IC25) and samples (10 µM) were added.” left out
as §4, §5

ABCB1 (P-gp) = assay: ABCB1 mRNA expression (real-time PCR); assay type: cell-based, human; conditions: 10 µM, 48 h, without doxorubicin
Method: as §1, with “After 24 h, the dishes were washed with PBS and new DMEM medium supplemented with doxorubicin (at concentration equal to IC25) and samples (10 µM) were added.” left out
as §2
as §5, with “acquired. Duplicate samples were used for measurement and samples with a standard deviation of duplicates > 1.0 cycle threshold (Ct) were re-analyzed. The real time PCR procedure was maintained according to MIQE (Minimum information for publication of quantitative real-time PCR experiments) guidelines.” for “acquired.”

[6] = 10 µM combined with doxorubicin at IC25, 48 h
[7] = 10 µM, 48 h, without doxorubicin

SMILES	ABCB9 Expression Difference (ABCB9)	downregulation of ABCA2 expression (ABCA2) [%]	ABCA2 Expression Difference (ABCA2)	ABCA2 Treated vs. Untreated (ABCA2)	ABCF1 Expression Difference (ABCF1; [6])	ABCF2 Expression Difference (ABCF2 [1])	ABCA3 Expression Difference (ABCA3; [6])	ABCB2 Expression Difference (ABCB2)	ABCF2 Expression Difference (ABCF2 [3])	ABCF1 Expression Difference (ABCF1; [7])	ABCF1 Treated vs. Untreated (ABCF1; [7])	ABCB7 Expression Difference (ABCB7)	viability at 20 µM [2] [%]	ABCB8 Expression Difference (ABCB8)	ABCD4 Expression Difference (ABCD4)	also measured
COc1cc([C@H]2Oc3cc(-c4oc5cc(O)cc(O)c5c(=O)c4O)ccc3O[C@@H]2CO)ccc1O [Dehydrosilybin A, 2,3-dehydrosilybin A]	1.317	22	0.778	DOWN	0.920	1.198	1.042	1.905	1.044	–	–	–	–	–	–	viability at 50 µM [2]: < 80%
COc1cc(C2Oc3cc(-c4oc5cc(O)cc(O)c5c(=O)c4O)ccc3OC2CO)ccc1O (centres unmarked) [Dehydrosilybin AB, 2,3-dehydrosilybin]	1.669	–	–	–	0.923	1.418	0.943	2.341	1.343	0.322	DOWN	1.463	< 80	–	–	inhibition of lipid peroxidation compared to silybin [4]: 10 fold; radical scavenging compared to silybin [5]: 25 fold
COc1cc([C@@H]2Oc3cc(-c4oc5cc(O)cc(O)c5c(=O)c4O)ccc3O[C@H]2CO)ccc1O [Dehydrosilybin B, 2,3-dehydrosilybin B]	–	11	0.891	DOWN	0.784	1.334	1.060	1.625	1.226	–	–	–	< 80	–	–	–
COc1cc([C@H]2Oc3cc([C@H]4Oc5cc(O)cc(O)c5C(=O)[C@@H]4O)ccc3O[C@@H]2CO)ccc1O [Silybin A, silybin A]	–	–	1.078	–	–	–	–	1.141	1.242	–	–	–	–	–	–	–
COc1cc(C2Oc3cc([C@H]4Oc5cc(O)cc(O)c5C(=O)[C@@H]4O)ccc3OC2CO)ccc1O (some centres unmarked) [Silybin AB, silybin]	2.091	–	2.583	–	0.137	1.326	1.142	–	1.463	–	–	1.803	–	1.503	1.882	ABCA7 Expression Difference (ABCA7): 2.704; ABCF1 Treated vs. Untreated (ABCF1; [6]): DOWN; number of ABC genes with increased expression (ABC superfamily genes): 20
COc1cc([C@@H]2Oc3cc([C@H]4Oc5cc(O)cc(O)c5C(=O)[C@@H]4O)ccc3O[C@H]2CO)ccc1O [Silybin B, silybin B]	0.392	–	0.520	DOWN	–	0.307	0.794	–	–	0.260	DOWN	–	–	0.413	0.370	ABCB9 Treated vs. Untreated (ABCB9): DOWN; ABCB3 Expression Difference (ABCB3): 0.365; ABCB3 Treated vs. Untreated (ABCB3): DOWN; ABCB8 Treated vs. Untreated (ABCB8): DOWN; ABCF2 Treated vs. Untreated (ABCF2 [1]): DOWN; ABCD4 Treated vs. Untreated (ABCD4): DOWN; ABCA3 Treated vs. Untreated (ABCA3; [6]): DOWN; ABCA3 Expression Difference (ABCA3; [7]): 0.228; ABCA3 Treated vs. Untreated (ABCA3; [7]): DOWN; downregulation of ABCB1 (P-gp) expression (ABCB1 (P-gp)): 79%; ABCB1 Expression Difference (ABCB1 (P-gp); A2780/DOX): 0.208; ABCB1 Treated vs. Untreated (ABCB1 (P-gp); A2780/DOX): DOWN; number of ABC genes with altered expression (ABC superfamily genes; out of 42 tested): 24
